Values quoted from earlier work as cited in patent publication US6531463B1, “Method for producing a fat mixture” (Spice Sciences Oy, priority 1998, dated 2003).

Legend:
[1] = tested on: absorption of cholesterol; settings: for decrease of the absorption of cholesterol: nine adult patients, 5 days, 500 mg of cholesterol, 1 gram of β-sitosterol or 2 grams of β-sitosteryl oleate
[2] = tested on: serum cholesterol; settings: in vivo
[3] = administered orally
[4] = tested on: cholesterol levels; settings: added to the feed of cholesterol fed chicken
[5] = tested on: cholesterol levels, atherogenesis; settings: added to the feed of cholesterol fed rabbits
[6] = tested on: absorption of cholesterol
[7] = tested on: cholesterol levels; settings: preparations studied in 1950's and 1960's

Row | Compound | reduction of the absorption of cholesterol from food ([1]; 1 gram of β-sitosterol, food containing 500 mg of cholesterol) [%] | decrease of the absorption of cholesterol [1] [%] | lowering of the LDL-cholesterol level [2] [%] | lowering of the total serum cholesterol level [2] | proportion absorbed [3] | cholesterol levels [4] | atherogenesis [5] | cholesterol levels [5] | absorption of cholesterol ([6]; female rats (Uchita et al.)) | cholesterol balance in plasma and liver ([6]; female rats (Uchita et al.)) | inhibition of absorption of cholesterol ([6]; rats (Vahouny et al.)) [%] | lowering of cholesterol levels [7]
1 | CC[C@H](CC[C@@H](C)[C@H]1CC[C@H]2[C@@H]3CC=C4C[C@@H](O)CC[C@]4(C)[C@H]3CC[C@]12C)C(C)C [β-sitosterol, stigmasta-5-en-3β-ole] | 42 | 42 | 19 | 10-15% | less than 5% | cholesterol levels were lowered | prevented atherogenesis | cholesterol levels were lowered | – | – | – | –
2 | CCCCCCCC/C=C\CCCCCCCC(=O)O[C@H]1CC[C@@]2(C)C(=CC[C@H]3[C@@H]4CC[C@H]([C@H](C)CC[C@@H](CC)C(C)C)[C@@]4(C)CC[C@@H]32)C1 [β-sitoteryl oleate, β-sitosteryl oleate] | – | 33 | – | – | – | – | – | – | – | – | – | –
3 | sitosterol | – | – | – | – | – | – | – | – | inhibits absorption of cholesterol | lowers cholesterol balance in plasma and liver | 54 | about 10%
